According to BindingDB's records for PubMed 33822624 (Ocean University of China, 2021):

Target: TCF7L2 (Homo sapiens)
Assay: Inhibition of beta-catenin/Tcf4 (unknown origin) in human SW480 cells assessed as reduction in cyclin D1 level qRT-PCR analysis

CC[C@H](C)[C@H](NC(=O)[C@H]1Cc2cn(nn2)CCCC[C@H](NC(=O)[C@H](CC(C)C)NC(=O)[C@H](CO)NC(=O)[C@H](CCCNC(=N)N)NC(=O)[C@H](CCC(=O)O)NC(=O)[C@H](CCCNC(=N)N)NC(=O)[C@H](Cc2cnc[nH]2)NC(=O)[C@H]2Cc3cn(nn3)CCCC[C@H](NC(=O)[C@H](CO)NC(=O)[C@H](CC(C)C)NC(C)=O)C(=O)N[C@@H](CCC(=O)O)C(=O)N[C@@H](CCC(N)=O)C(=O)N[C@@H](CC(C)C)C(=O)N2)C(=O)N[C@@H]([C@@H](C)O)C(=O)N[C@@H](CC(C)C)C(=O)N[C@@H](CCCNC(=N)N)C(=O)N1)C(=O)N[C@@H](CCC(N)=O)C(=O)N[C@@H](CCCNC(=N)N)C(=O)N[C@@H](CC(C)C)C(=O)N[C@@H](CC(C)C)C(=O)N[C@@H](Cc1ccccc1)C(N)=O
IC50: 4.2 µM
